Patent US12686666B2, “Triazine compound salt, crystal form thereof, and production method therefor” (TANABE PHARMA CORPORATION, priority 2020, dated 2026)

Key:
[1] = Pharmacokinetics in dogs treated with a promotor (pentagastrin) or an inhibitor (omeprazole) of gastric acid secretion; type: in vivo, dogs (male beagle); settings: dog; for Cmax / AUC(0-inf) / AUC(0-t) / Tmax / half-life: male, beagle, plasma, po, 10 mg, fasted, mean; for Cmax: oral 10 mg/capsule (free form equivalent); for AUC(0-inf) / AUC(0-t) / Tmax / half-life: oral 10 mg/capsule
Protocol: The pharmacokinetics of hydrobromide of the Triazine compound A and the Triazine compound A under gastric acid secretion and gastric pH adjustment was evaluated by using dogs treated with a promotor of gastric acid secretion or an inhibitor of gastric acid secretion according to a crossover method of 2 groups with 4 phases.
Pentagastrin was used in the treatment of a promotor of gastric acid secretion. Pentagastrin (2.8 mg) was dissolved into dimethylsulfoxide (7.0 mL) and water for injection (7.0 mL) to prepare an administration solution, and administered into a muscle in the thigh at a dose of […]. Pentagastrin was administered 0.5 hour before and 0.5 hour after the administration of each test material (hydrobromide of the Triazine compound A (Compound 1 prepared in Example 1) or the Triazine compound A (Compound 10 prepared in Example 1)). Omeprazole was used in the treatment of an inhibitor of gastric acid secretion. Omeprazole (90 mg) was dissolved into a 1:1 mixed solution (22.5 mL) of a 0.1% aqueous solution of sodium hydrogen carbonate (w/v) and polyethyleneglycol 400 to prepare an administration solution, and administered into a saphenous vein of the hind limb at a dose of 1 mg/0.25 mL/kg. Omeprazole was administered 1 hour before the administration of each test material.
After 25 mL of water for injection was administered to each dog by using a syringe having an oral catheter, the hydrobromide of the Triazine compound A or the Triazine compound A was forcedly orally administered to each dog at a dose of 10 mg/capsule (in case of hydrobromide of the Triazine compound A, free form equivalent (i.e., 10 mg in terms of the Triazine compound A)), and additional 25 mL of water for injection was administered to each dog through the syringe having an oral catheter. Each test material was administered under fasting state, and each dog was fed 6 hours after the administration. Each dog was deprived of water from 1 hour before the administration of each test material to 2 hours after the administration.
Tests were carried out by using 6 heads of 4 year-old male beagle and dividing them into two groups, each of which comprises 3 heads. The dogs in Group 1 were subjected to the administration in the order of (Phase 1) omeprazole administration, then the Triazine compound A administration, (Phase 2) omeprazole administration, then the hydrobromide of the Triazine compound A administration, (Phase 3) pentagastrin administration, then the Triazine compound A administration, and (Phase 4) pentagastrin administration, then the hydrobromide of the Triazine compound A administration, and the dogs in Group 2 were subjected to the administration in the order of (Phase 1) omeprazole administration, then the hydrobromide of the Triazine compound A administration, (Phase 2) omeprazole administration, then the Triazine compound A administration, (Phase 3) pentagastrin administration, then the hydrobromide of the Triazine compound A administration, and (Phase 4) pentagastrin administration, then the Triazine compound A administration, and washout period between each phase was 6 or 7 days. After 15 minutes, 30 minutes, 1, 2, 4, 6, 8, and 24 hour(s) from the administration of the hydrobromide of the Triazine compound A or the Triazine compound A, 0.6 mL of whole blood sample was collected under awakening of each dog from a cephalic vein by using a heparin sodium injection. The whole blood sample was processed into a plasma, and the drug concentration of the Triazine compound A was analyzed by using liquid chromatography-tandem mass spectrometry (LC-MS/MS). […]

human CYP11B2 = target: T1, human CYP11B2 (Homo sapiens, UniProt P19099); assay: Aldosterone synthase (CYP11B2) inhibitory activity measurement; type: biochemical; settings: mitochondrial fraction of V79 cells expressing human CYP11B2; deoxycorticosterone substrate; HTRF; read-out: IC50 (aldosterone production inhibition)
T1 construct: expressed in transfected cells; the mitochondrial fraction was used
T1 sequence (P19099 25-503): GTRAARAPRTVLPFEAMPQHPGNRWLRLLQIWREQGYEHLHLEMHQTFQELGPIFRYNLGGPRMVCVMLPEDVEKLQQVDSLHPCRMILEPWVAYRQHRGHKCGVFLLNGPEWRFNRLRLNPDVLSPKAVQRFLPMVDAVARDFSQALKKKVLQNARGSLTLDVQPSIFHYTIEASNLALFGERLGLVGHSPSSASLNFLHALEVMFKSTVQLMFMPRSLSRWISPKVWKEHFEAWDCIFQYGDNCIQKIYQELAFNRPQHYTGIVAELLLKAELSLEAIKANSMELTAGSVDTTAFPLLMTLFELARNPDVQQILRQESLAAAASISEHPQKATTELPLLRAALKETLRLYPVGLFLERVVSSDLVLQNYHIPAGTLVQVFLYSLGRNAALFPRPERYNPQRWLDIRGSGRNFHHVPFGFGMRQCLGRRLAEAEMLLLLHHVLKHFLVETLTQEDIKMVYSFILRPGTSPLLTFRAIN
Protocol: The pcDNA3.1-human CYP11B2 plasmid was transfected into a Chinese hamster lung fibroblast V79 cell line to produce a cell line stably expressing a human CYP11B2 gene.
The cells were cultured and grown in the Dulbecco's modified Eagle's/Ham's medium supplemented with 10% fetal bovine serum and 1% G418 disulfate solution under the environment of 37° C., 95% air, and 5% CO2, and the grown cells were harvested.
Then, the cells were fractionated to obtain mitochondria by reference to a method described in Chabre et al. JCE & M 85 (11) 4060-68, 2000. In particular, the cells suspended in a 5 mmol/L Tris-HCl buffer (pH 7.4) containing 250 mmol/L sucrose were homogenized in a Teflon (registered trademark) Potter Elvehjem homogenizer, and then the suspension was centrifuged (800×g, 15 min). […]
The mitochondrial fraction diluted with a buffer containing 10 mmol/L KH2PO4, 10 mmol/L Tris, 20 mmol/L KCl, 25 mmol/L sucrose, 5 mmol/L MgCl2, and 0.05% bovine serum albumin was dispensed to a 96 well plate. […] The amount of the produced aldosterone in the incubated solution was determined by using HTRF (Homogeneous Time Resolved Fluorescence) method.
IC50 (nmol/L) was calculated by analyzing the aldosterone production inhibition rate (%) of each concentration of the Triazine compound A of the present invention by non-linear regression to a logistic curve.

[2] = Omeprazole, reduced gastric acid secretion
[3] = Pentagastrin, increased gastric acid secretion

For `CC(=O)N[C@H]1CC[C@H](NC(=O)CN2CCN(c3nncc(-c4ccc(C)cc4)n3)CC2)CC1` [Triazine compound A, 3-[4-[[trans-4-(acetamino)cyclohexyl]carbamoylmethyl]piperazin-1-yl]-5-(p-tolyl)-1,2,4-triazine], the “Reduction of AUC under reduced gastric acid conditions as compared to increased gastric acid secretion conditions” value ([1]; oral 10 mg) was “about 50%”, the “Reduction of Cmax under reduced gastric acid conditions as compared to increased gastric acid secretion conditions” value ([1]; oral 10 mg) was “about 50%” and the Cmax [1, 2] was 102 ng/mL. The Cmax [1, 3] was 222 ng/mL, the AUC(0-inf) [1, 2] was 1000 ng·h/mL and the AUC(0-t) [1, 2] was 943 ng·h/mL. It also gave a Tmax [1, 2] of 3.33 h, a half-life [1, 2] of 5.6 h and an AUC(0-inf) [1, 3] of 1910 ng·h/mL. It also gave an AUC(0-t) [1, 3] of 1690 ng·h/mL, a Tmax [1, 3] of 1.42 h and a half-life [1, 3] of 4.26 h. The IC50 (human CYP11B2) was 9 nM.
